Earlier results on 2 compounds are cited in patent US20200268770A1, “PHARMACEUTICAL COMPOSITION USED FOR TREATING METABOLIC SYNDROME DISORDERS, INFECTIOUS DISEASES, AND COMPLICATIONS THEREOF” (priority 2017, published 2020).

Each structure is given as a SMILES string. Where two headings read alike, the source gives them in different places.

Data set [1] deals with C57BL/6 mice fed with high fat foods.
In the next data set the test system is 3T3-L1 cells. Particulars: 3T3-L1 cells stimulated by differentiation inducers.
Setting [2] is: pre-treatment, C57BL/6 mice fed with high fat foods.

On to `C=C(C)[C@H]1CC=C(C)CC1` [d-limonene], for which, in data set [1] (setting [2]), the “fasting blood glucose levels” value is on record as “lowered”; the hepatic lipid accumulation entry is reported as “prevented”; the “serum triglycerides (TG)” value is “lowered”; the “size of white and brown adipocytes” value is listed as “decreased”. In data set [1] (therapeutic, obese mice), the “fasting blood glucose levels” value is reported as “reduced”, the glucose tolerance result is listed as “reduced”, the “high-density lipoprotein cholesterol (HDL-c)” value is listed as “increased” and the “low-density lipoprotein cholesterol (LDL-c)” value is “reduced”. Besides, the “serum TG” value in data set [1] (therapeutic, obese mice) is listed as “reduced”.
In the case of `C=C(C)[C@@H]1CC[C@]2(C)CC[C@]3(C)[C@H](CC[C@@H]4[C@@]5(C)CC[C@H](O)C(C)(C)[C@@H]5CC[C@]43C)[C@@H]12` [lupeol], where the note is “after 21 days”, the glycated hemoglobin entry is “decrease”, the nitric oxide result was “decrease”, the progression of diabetes entry was “suppressed” and the serum glucose result is “decrease”. Also, under “after 21 days”, the serum insulin levels result is “concomitant increase”. Besides, where the note is “in vivo”, the antioxidant levels result is given as “increased” and the “content of thiobarbituric acid-reactive substances” value was “decrease”. In addition, in the data set on 3T3-L1 cells, the TG synthesis result is on record as “strongly blocked” and the lipid droplet accumulation entry is recorded as “strongly blocked”.
